Laboratory results as given in US8313901B2, “Methods and compositions related to the modulation of riboswitches” (Yale University, priority 2005, dated 2012).

Experiments:
glmS ribozyme [1] = assay: High-throughput FRET fluorescence screen of substrate cleavage by bimolecular glmS ribozyme (Example 1, Method 1); type: biochemical; conditions: for Fl21 h/Flg h: fluorescence ratio, high-throughput fluorescence screen, 21 h
Experimental: The naturally occurring glmS RNA element catalyzes self-cleavage in the presence of modest concentrations (>100 μM) of glucosamine-6-phosphate (Gln6P, FIG. 1A). In the absence of this important metabolite, no cleavage activity is observed. Although the natural sequence of the glmS element forms a unimolecular cis-cleaving ribozyme, active glmS ribozyme can also be constructed as a biomolecular […] ribozyme. In this format, the cleaved strand, termed the substrate, includes the 5′ base pairs that form half of the pairing element 1 (P1) and the conserved nucleotides upstream P1 (FIG. 1B). The non-cleaved ribozyme strand includes the 3′ half of P1 and the remaining sequence of the glmS element. Using this biomolecular format, the 16-nucleotide substrate strand was labeled at the 3′ and the 5′ ends with the fluorescently probes fluorescein (F1) and cy3, respectively. In an uncleaved substrate RNA, emission of the excited state fluorescein is quenched by the enforced proximity of the cy3 quencher. Upon cleavage in the presence of the Gln6P system, the binding of Gln6P (or related derivatives) to the glmS riboswitch can be rapidly screened using standard high-throughput techniques.
After a minimum of 10 hours incubation, the fluorescence intensity of FI increased ˜4 fold in the presence of 160 μM glucosamine-6-phosphate, whereas no observable change was detected in the absence of effector (FIG. 2). […] To further explore the discriminatory limits of this detection system, a library of sixteen Gln6P derivatives was also screened. The resulting glmS binding activities correspond well with the binding activities independently determined by gel electrophoresis methods (Table 1). Detection systems are also being used to screen a novel library of 20,000 compounds (Microsource Discovery Systems, Inc.) unrelated to Gln6P for binding the glmS ribozyme.

glmS ribozyme [2] = assay: Electrophoretic in-line probing of analog binding to glmS ribozyme
ribD RNA = conditions: cited from earlier work
[3] = tested on: unimolecular glmS ribozyme; conditions: cited from earlier work
[4] = tested on: bimolecular glmS ribozyme; assay: High-throughput glmS assay, FRET in 384-well plates (Example 2); type: biochemical, S. aureus; conditions: for relative fluorescence (relative to time zero): 200 μM
Experimental: High-throughput glmS assay. High-throughput fluorescence assay validation and screening was performed in 384-well black polypropylene plates (Corning part number 3677) in a 10 μL solution of 50 mM HEPES (pH 7.5 at 25° C.), 10 mM MgCl2, and 200 mM KCl, with 0.01% SDS where indicated in the text. A Tecan Aquarius multichannel pipettor (Tecan Group, LTD, Switzerland) was used for automated liquid handling. In a typical experiment, a reaction mixture containing buffer and both RNA domains was transferred into the assay plates with the liquid handler, the fluorescence was measured, and the reaction was initiated by the addition of ˜50 nl of either GlcN6P, an analog of GlcN6P, or a library compound suspended at 10 mM in DMSO using the Tecan pin tool (˜50 μM final concentration of compound). Plates were sealed with non-breathable sealing tape and protected from light for the specified incubation time, at which point the plate was briefly centrifuged and the fluorescence measured. All multiplate fluorescence measurements were conducted with a Wallach Envision (Perkin Elmer, Wellesly, Mass.) plate reader with a 480 nm excitation filter (30 nm bandwidth) and a 535 nm emission filter (25 nm bandwidth).
To enable FRET detection of cleavage, the substrate was synthesized with a 5-(and 6-)-carboxyfluorescein (5/6-FAM) donor at the 3′ end and a Cy3™ acceptor at the 5′ end. When excited at 485 nm, the 5/6-FAM donor normally emits at a maximum wavelength of 526 nm. When the substrate strand is intact, however, the fluorescence of 5/6-FAM is reduced presumably due to quenching by the proximal Cy3™ acceptor. After addition of GlcN6P and cleavage of the substrate strand, the two product strands dissociate, relieving the proximity of 5/6-FAM and Cy3™, with a concomitant increase of 5/6-FAM fluorescence. Similar fluorescence-based systems have been used to detect ribozyme cleavage in real time (Singh et al., RNA 1999; 5: 1348-1356; Hanne et al., Nucleosides Nucleotides 1998; 17: 1835-1850). Using this FRET detection strategy, the addition of 40 μM GlcN6P induces an increase in the fluorescence signal of greater than 6 fold within 20 minutes (FIG. 7B). The modest burst in fluorescence increase could be due to a conformational change in the substrate that occurs upon ligand binding. Tertiary contacts between ribozyme and substrate would constrain the substrate to a greater extent compared to that caused by the short base paired region, thus increasing the average distance between donor and acceptor. Importantly, no fluorescence increase was observed over this time course in the absence of either GlcN6P or the ribozyme.
To facilitate rapid solution-based measurement of cleavage for large compound libraries, the assay conditions were optimized for automated liquid handling and fluorescence measurement in 384-well microplates. To reduce demand for enzyme and substrate RNAs, the concentrations of these molecules were varied to determine the minimal concentration of each that can be used to give a reproducible and statistically significant increase in the fluorescent signal. At 10 nM of each strand, a 4-fold increase in fluorescence was observed after 68 hours when 100 μM GlcN6P was present (FIG. 7C). […] At incubation times less than 48 hours, the increase in fluorescence was noticeably less, most likely because the concentration of the two RNA strands is well below the measured dissociation constant of 0.2 μM, slowing the observed cleavage rate. […]

glmS ribozyme [5] = assay: PAGE / electrophoretic analysis of glmS ribozyme activation; type: biochemical, S. aureus; conditions: after incubating for 2 hours
Experimental: This cutoff for functional compounds (“hits”) of 2.5-fold increased fluorescence represents a statistically significant 18 standard deviations over the mean fluorescence value in the absence of ligand (“NL”). […] A similar case exists for glucosamine, which induces a 3.0-fold increase in fluorescence after 44 hours, even though its measured affinity for the ribozyme is more than 100-fold lower than GlcN6P (McCarthy et al., Chem Biol 2005; 12: 1221-1226). Thus, the fluorescent report from the high-throughput screen accurately reflects binding activity for the glmS ribozyme.
Each of the five compounds identified was retested for glmS activation with either the fluorescence screen or by electrophoretic methods. […] Moreover, these types of infrequent false-positive hits have been observed for other fluorescence-based high-throughput screens (Zhang et al., J Biomol Screen 2005; 10: 695-704) and can readily be confirmed or refuted in our case with the secondary ribozyme cleavage assay (Soukup and Breaker, RNA 1999; 5: 1308-1325). One possible explanation for the false positives is that they quench or otherwise modify the fluorescent label on the RNA over the 44 hour time course, or that the compounds become fluorescent over time. Nevertheless, the identification of glucosamine confirms that this screen can identify even low affinity glmS-activating compounds from complex compound libraries.

[6] = tested on: bimolecular glmS ribozyme; assay: Single reaction FRET-based kinetic assay of glmS cleavage; type: biochemical, S. aureus; conditions: 40 μM GlcN6P, within 20 minutes
Experimental: Low-throughput glmS kinetic analyses. All kinetic assays were conducted in 50 mM HEPES (pH 7.5 at 25° C.), 10 mM MgCl2, and 200 mM KCl. To initiate the reaction, GlcN6P was added to give a final concentration of 200 μM. Kinetic assays with radiolabeled substrate were performed as described previously (Soukup, Nucleic Acids Res 2006; 34: 968-975). Rate constants were established by plotting the natural logarithm of the fraction of substrate remaining uncleaved versus time, and then determining the negative slope of the resulting line. For the highest rate constants, only the initial phase of the plots were used because ˜20% of the RNA substrate remained uncleavable. […]
To enable FRET detection of cleavage, the substrate was synthesized with a 5-(and 6-)-carboxyfluorescein (5/6-FAM) donor at the 3′ end and a Cy3™ acceptor at the 5′ end. […] When the substrate strand is intact, however, the fluorescence of 5/6-FAM is reduced presumably due to quenching by the proximal Cy3™ acceptor. After addition of GlcN6P and cleavage of the substrate strand, the two product strands dissociate, relieving the proximity of 5/6-FAM and Cy3™, with a concomitant increase of 5/6-FAM fluorescence. Similar fluorescence-based systems have been used to detect ribozyme cleavage in real time (Singh et al., RNA 1999; 5: 1348-1356; Hanne et al., Nucleosides Nucleotides 1998; 17: 1835-1850). […]

[7] = tested on: bimolecular glmS ribozyme; assay: Kinetic assay with 5'-radiolabeled substrate; type: biochemical, S. aureus; conditions: 0.5 μM ribozyme, 200 μM GlcN6P, saturating substrate, 25° C.
Experimental: Low-throughput glmS kinetic analyses. All kinetic assays were conducted in 50 mM HEPES (pH 7.5 at 25° C.), 10 mM MgCl2, and 200 mM KCl. To initiate the reaction, GlcN6P was added to give a final concentration of 200 μM. Kinetic assays with radiolabeled substrate were performed as described previously (Soukup, Nucleic Acids Res 2006; 34: 968-975). Rate constants were established by plotting the natural logarithm of the fraction of substrate remaining uncleaved versus time, and then determining the negative slope of the resulting line. For the highest rate constants, only the initial phase of the plots were used because ˜20% of the RNA substrate remained uncleavable. Single reaction FRET-based kinetic assays were performed with λexcit=488 nm (slit width=1 nm), λemit=523 nm (slit width=8 nm).
Although the glmS ribozyme sequence is highly conserved among many bacterial species, the S. aureus sequence was chosen for screening development because of its clinical importance. To facilitate detection of cleavage, the natural self-cleaving glmS ribozyme was converted to a bimolecular ribozyme (FIG. 6B) in which separate substrate and ribozyme oligonucleotides associate via a truncated P1 stem. […]

glmS riboswitch = conditions: cited from earlier work

SMILES: C[N+](C)(C)C1C(O)OC(COP(=O)(O)O)C(O)C1O (centres unmarked) [Me3N-Gln 6P]
- Fl21 h/Flg h (glmS ribozyme [1]): 1.27
- Activity by electrophoretic in-line probing (glmS ribozyme [2]): No

SMILES: Cc1cc2nc3c(=O)[nH]c(=O)nc-3n(C[C@H](O)[C@H](O)[C@H](O)CO)c2cc1C [riboflavin]
- discrimination against ligand relative to FMN (ribD RNA): approximately three orders of magnitude

SMILES: O=C[C@H](O)[C@@H](O)[C@H](O)[C@H](O)COP(=O)(O)O [glucose-6-phosphate]
- activation of the glmS ribozyme [3]: cannot activate it

SMILES: N[C@@H]1[C@@H](O)[C@H](O)[C@@H](COP(=O)(O)O)O[C@@H]1O [Gln6P com]
- Fl21 h/Flg h (glmS ribozyme [1]): 2.24
- Activity by electrophoretic in-line probing (glmS ribozyme [2]): Yes

SMILES: N[C@H]1C(O)O[C@H](CO)[C@@H](O)[C@@H]1O (some centres unmarked) [glucosamine]
- increase in fluorescence ([4]; after 44 hours): 3.0 fold
- cleavage on a gel (glmS ribozyme [5]): stimulates detectable cleavage
- activity in previously described glmS screen ([3]; after 30 minutes): no observable activity
- activation of the glmS ribozyme [3]: cannot activate it

SMILES: COC1OC(COP(=O)(O)O)C(O)C(O)C1N (stereo not drawn) [β-MeO-Gln 6P]
- Fl21 h/Flg h (glmS ribozyme [1]): 1.02
- Activity by electrophoretic in-line probing (glmS ribozyme [2]): No

SMILES: N[C@H]1C(O)O[C@H](COP(=O)(O)O)[C@@H](O)[C@@H]1O (some centres unmarked) [Gln6P, glucosamine-6-phosphate]
- increase in fluorescence intensity of Fl (glmS ribozyme [1]; 160 μM glucosamine-6-phosphate, minimum of 10 hours incubation): ~4 fold
- Fl21 h/Flg h (glmS ribozyme [1]): 3.36
- Activity by electrophoretic in-line probing (glmS ribozyme [2]): Yes
- increase in fluorescence ([4]; 10 nM of each strand, 100 μM GlcN6P, after 68 hours, 0.01% SDS): 4 fold
- relative fluorescence (relative to time zero) ([4]; 21 hours): 3.5
- relative fluorescence (relative to time zero) ([4]; 44 hours): 3.4
- increase in fluorescence ([4]; screen of library of twelve GlcN6P analogs): 3.5 fold
- increase in the fluorescence signal [6]: greater than 6 fold
- apparent rate constant of cleavage [7]: 0.25 min⁻¹
- concentration that activates cleavage (glmS riboswitch; concentrations as low as): ≥ 1 µM
- single-turnover rate constant (glmS riboswitch; previously reported): 1 min⁻¹
- Kd (glmS riboswitch; read-out: apparent KD): 200 µM

SMILES: CC(=O)N[C@H]1C(O)O[C@H](COP(=O)(O)O)[C@@H](O)[C@@H]1O (some centres unmarked) [AcNGln 6P]
- Fl21 h/Flg h (glmS ribozyme [1]): 2.28
- Activity by electrophoretic in-line probing (glmS ribozyme [2]): Weakly

SMILES: CNC1C(O)OC(COP(=O)(O)O)C(O)C1O (centres unmarked) [MeN-Gln 6P]
- Fl21 h/Flg h (glmS ribozyme [1]): 3.49
- Activity by electrophoretic in-line probing (glmS ribozyme [2]): Yes

SMILES: O=P(O)(O)OC[C@H]1OC(O)[C@H](O)[C@@H](O)[C@H]1O (some centres unmarked) [Gal6P]
- Fl21 h/Flg h (glmS ribozyme [1]): 1.69

SMILES: N[C@H]1C(O)O[C@H](CO)[C@@H](O)[C@@H]1O (some centres unmarked) [Gln com]
- Fl21 h/Flg h (glmS ribozyme [1]): 1.87
- Activity by electrophoretic in-line probing (glmS ribozyme [2]): Yes

SMILES: Cc1cc2nc3c(=O)[nH]c(=O)nc-3n(C[C@H](O)[C@H](O)[C@H](O)COP(=O)(O)O)c2cc1C [FMN, flavin mononucleotide]
- Kd (ribD RNA; read-out: apparent KD): ~0.005 µM
